According to US11857513B2, “Selective inhibitor of exon 20 insertion mutant EGFR” (Taiho Pharmaceutical Co., Ltd., priority 2016, dated 2024):
Where two headings read alike, the source gives them in different places.

Legend:
[1] = tested on: H1975-EGFRinsSVD-Luc cells; assay: Life-extending effect, nude mice transplanted with H1975-EGFRinsSVD-Luc cells in the lung; conditions: H1975 EGFR insSVD in lung, 20 mg/kg orally once daily
Description: H1975-EGFRinsSVD-Luc strain was established by introducing a luciferase into H1975-EGFRinsSVD, which is a human mutant EGFR-introduced cell line. A pJTI (trademark) Fast DEST vector, which was prepared by encoding a Luciferase into NCI-H1975-EGFRinsSVD cells, was introduced into […], together with a pJTI (trademark) PhiC31 integrase expression vector, by electroporation using an Amaxa (trademark) Cell Line Nucleofector (trademark) Kit R, followed by selection using hygromycin B (Nacalai Tesque Inc.).
In evaluation of the life-extending effect, an equivalent amount of Matrigel was added to a suspension of cultured H1975-EGFRinsSVD-Luc cells to prepare a cell suspension, and the cell suspension was transplanted into the right lung of nude mice. On day 6 after transplantation, all of the living mice were administered a luciferin through the tail vein, and allocated into groups, 9 mice for each group, by stratified randomization such that the average luminescence intensity between the groups was uniform. […] The maximum tolerated dose was determined in accordance with the “Guidelines Involving Experimental Neoplasia Proposals in Mice and Rats” of the National Cancer Institute (NCI), from a humanitarian perspective.
To evaluate the life-extending effect, the survival period after transplantation was observed, and the survival time of each mouse was determined. From the survival time, the median survival time (which hereinafter also referred to as “MST”) of each group was calculated, and the survival period-extending effect (i.e., an increase in lifespan, which hereinafter also referred to as “I.L.S. (%)”) was calculated based on MST of the control group and the group administered with a test compound, using the following formula. For a toxicity index, the body weight was measured over time, and the body weight change (which hereinafter also referred to as “BWC (%)”) from the day on which the mice were divided into groups was calculated in accordance with the following formula.
T: MST of the group administered with a test compound
C: MST of the control group
(§1) BWC (%)=(the body weight measured on body weight measurement day)/(the body weight on the day mice were divided into groups)

NIH3T3-EGFRinsASV cells = assay: Antitumor effect, nude mice subcutaneously transplanted with NIH3T3-EGFRinsASV cells; type: in vivo, mouse; conditions: 20 mg/kg orally once daily, 14 days
Description: (§2) Nude mice were subcutaneously transplanted with NIH3T3-EGFRinsASV cells, NIH3T3-EGFRinsSVD cells, or H1975-EGFRinsSVD cells to which human mutant EGFR was introduced. At the point at which the tumor volume of the tumor engrafted in the nude mice grew to about 100 to 200 mm^3, the mice were allocated into groups, 5 to 6 mice for each group, by stratified randomization such that the average tumor volume between the groups was uniform.
(§3) The maximum tolerated dose was determined in accordance with the “Guidelines Involving Experimental Neoplasia Proposals in Mice and Rats” of the National Cancer Institute (NCI), from a humanitarian perspective.
(§4) To compare the changes in growth of tumor over time due to administration of the individual test compounds, a relative tumor volume (which hereinafter also referred to as “RTV”) was calculated based on the tumor volume at the time the mice were divided into groups (which is taken as 1 for the tumor growth ratio), using the following formula. For a toxicity index, the body weight was measured over time, and the average body weight change (which hereinafter also referred to as “BWC (%)”) from the day on which the mice were divided into groups was calculated in accordance with the following formula.
(§5) RTV=(the tumor volume on the day a tumor volume was measured)/(the tumor volume on the day mice were divided into groups) […]

[2] = Time of maximum blood concentration after oral administration in nude mice; type: in vivo, mouse; conditions: single oral administration, around
NIH3T3-EGFRinsSVD cells = assay: Antitumor effect, nude mice subcutaneously transplanted with NIH3T3-EGFRinsSVD cells; type: in vivo, mouse; conditions: 20 mg/kg orally once daily, 14 days
Description: as §2, §3, §4, §5

NIH3T3-EGFRinsNPH cells = assay: Antitumor effect, nude mice subcutaneously transplanted with NIH3T3-EGFRinsNPH cells; conditions: NIH3T3 EGFRinsNPH, 20 mg/kg orally once daily, 10 days
Description: as §2, with “with NIH3T3-EGFRinsNPH” for “with NIH3T3-EGFRinsASV cells, NIH3T3-EGFRinsSVD cells, or H1975-EGFRinsSVD”, “cells into” for “cells to”, “groups,” for “groups, 5 to”
as §3
To compare the changes in growth of tumor over time due to administration of the individual test compounds, the tumor volume (which hereinafter also referred to as “TV”) of each mouse was calculated using the following formula. For a toxicity index, the body weight was measured over time, and the body weight change (which hereinafter also referred to as “BWC (%)”) from the day on which the mice were divided into groups was calculated in accordance with the following formula. FIGS. 9 and 10 illustrate changes in the average TV and the average BWC of the mice.
TV (mm^3)=(the major axis x the short axis^2)/2
as §1
The T/C (%) on the final evaluation day was calculated in accordance with the following formula.
T/C (%)=(the tumor volume of the group administered with a test compound)/(the tumor volume of the control group)

H1975-EGFRinsSVD cells [3] = assay: Antitumor effect, nude mice subcutaneously transplanted with H1975-EGFRinsSVD cells; type: in vivo, mouse; conditions: 20 mg/kg orally once daily, 14 days
Description: as §2, §3, §4, §5

H1975-EGFRinsSVD cells [4] = assay: Cell growth inhibitory effect on mutant EGFR-expressing human cell line (CellTiter-Glo); type: cell-based; conditions: Homo sapiens, NCI-H1975, 72 h, read-out: GI50 H1975 EGFRinsSVD
Description: (§6) To evaluate the inhibitory activity of compounds against wild-type EGFR and mutant EGFR, the following cells were used: NCI-H1975 cells, which are human pulmonary adenocarcinoma cell lines expressing EGFR with mutation D770_N771insSVD by gene modification (which hereinafter also referred to as “H1975-EGFRinsSVD”); and A431 cells, which are human epithelial cancer cell lines expressing wild-type EGFR. H1975-EGFRinsSVD cells were prepared as follows. […] XTN (trademark) TALENs Site-Specific Nucleases (Transposagen) were introduced into the cells by electroporation using the Amaxa (trademark) Cell Line Nucleofector (trademark) Kit R, and endogenous-EGFR (T790M/L858R)-knockout cells were selected by sequencing.
(§7) To evaluate the cell growth inhibitory effect, individual types of cells were suspended in a medium recommended by ATCC. The cell suspensions were seeded in each well of respective 96-well flat-bottom plates such that the cell count per well was 3,000, and incubated in a 5% CO2-containing incubator at 37° C. for 1 day. […] The cell count at the time incubation started (day 0) and the cell count after incubation (day 3) were measured using a CellTiter-Glo (trademark) Luminescent Cell Viability Assay (Promega Corporation) in accordance with the manufacturer's recommended protocol.
(§8) 1) If T on day 3≥C on day 0: Growth Rate (%)=(T on day 3−C on day 0)/(C on day 3−C on day 0)×100 T: the luminescence intensity of a well to which a test compound was added. C: the luminescence intensity of a well to which the test compound was not added. Day 0: the day on which a test compound was added. Day 3: the day on which evaluation was performed. 2) If T on day 3<C on day 0: Growth Rate (%)=(T on day 3−C on day 0)/(C on day 0)×100 T: the luminescence intensity of a well to which a test compound was added. C: the luminescence intensity of a well to which the test compound was not added. Day 0: the day on which a test compound was added. Day 3: the day on which evaluation was performed.
Additionally, the ratio of GI50between wild-type EGFR and EGFR exon 20 insertion mutation was determined using the following formula.
GI50 (A431): GI50 for wild-type EGFR
GI50 (H1975 EGFRinsSVD): GI50 for EGFR exon 20 insertion mutation

A431 cells = assay: Cell growth inhibitory effect on wild-type EGFR-expressing human cell line (CellTiter-Glo); type: cell-based; conditions: A-431, 72 h, read-out: GI50 A431
Description: as §6, §7, §8

Structure (SMILES): CN(C)C/C=C/C(=O)Nc1cc2c(Nc3ccc(F)c(Cl)c3)ncnc2cc1O[C@H]1CCOC1 [Afatinib, afatinib, reference compound]
- I.L.S. (%) (increase in lifespan) [1]: 23%
- MST (median survival time) [1]: 54
- T/C (%) on the final evaluation day (NIH3T3-EGFRinsASV cells): 46%
- time at which the maximum blood concentration is achieved [2]: three hours
- T/C (%) on the final evaluation day (NIH3T3-EGFRinsSVD cells): 39%
- T/C (%) on the final evaluation day (NIH3T3-EGFRinsNPH cells): 59%
- T/C (%) on the final evaluation day (H1975-EGFRinsSVD cells [3]): 79%

Structure (SMILES): C=CC(=O)N[C@H]1CCc2c(-c3cnc4ccccc4c3)c3c(N)ncnc3n2C1 [Comparative Compound, (S)—N-(4-amino-5-(quinolin-3-yl)-6,7,8,9-tetrahydropyrimido[5,4-b]indolizin-8-yl)acrylamide, reference compound]
- GI50 (H1975-EGFRinsSVD cells [4]; H1975-EGFRinsSVD, D770_N771insSVD, 3 days): 364 nM
- GI50 (A431 cells; A431, wild-type EGFR, 3 days): 543 nM

Structure (SMILES): C=CC(=O)Nc1cc(Nc2nccc(-c3cn(C)c4ccccc34)n2)c(OC)cc1N(C)CCN(C)C [Osimertinib, osimertinib, reference compound]
- GI50 (H1975-EGFRinsSVD cells [4]): 194 nM
